Test results: ChEMBL document CHEMBL1201862, “PubChem BioAssay data set” (2004)
Active and inactive are the calls of the source.

Tests used:
Cytochrome P450 1A2 = biological target: T1, Cytochrome P450 1A2 (Homo sapiens, UniProt P05177);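 also: PubChem cytochrome P450 panel assay, CYP1A2 panel member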
T1 sequence (P05177 whole entry): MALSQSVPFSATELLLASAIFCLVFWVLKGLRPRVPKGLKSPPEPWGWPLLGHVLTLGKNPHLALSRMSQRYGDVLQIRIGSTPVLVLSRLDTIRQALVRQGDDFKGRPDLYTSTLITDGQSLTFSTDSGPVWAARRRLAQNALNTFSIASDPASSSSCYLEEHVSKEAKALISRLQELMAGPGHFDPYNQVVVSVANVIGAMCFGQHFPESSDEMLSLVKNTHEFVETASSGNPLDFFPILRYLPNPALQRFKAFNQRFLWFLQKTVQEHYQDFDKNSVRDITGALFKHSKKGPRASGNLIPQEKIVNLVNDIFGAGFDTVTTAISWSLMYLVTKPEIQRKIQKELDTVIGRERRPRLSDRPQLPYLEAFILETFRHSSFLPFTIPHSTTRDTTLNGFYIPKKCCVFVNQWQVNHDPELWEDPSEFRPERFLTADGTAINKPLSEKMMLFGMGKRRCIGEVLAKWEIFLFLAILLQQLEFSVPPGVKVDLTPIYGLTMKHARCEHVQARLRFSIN

[1] = cytotoxicity toward NIH3T3 fibroblasts, dose response, counter-screen, cell-based, ATP luminescence, mouse fibroblasts (AID 2010); format: functional;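 also: cells exposed to compound for about 90 hours before reading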
[2] = inhibitors of intracellular T. cruzi replication, confirmation, NIH3T3 host cells, beta-gal luminescence (AID 2044); format: functional, cell-based;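 also: intracellular parasites grown in NIH/3T3 mouse fibroblasts as host cells; luminescent beta-galactosidase reporter signal from transgenic T. cruzi replicating inside host cells; inhibitors lower the luminescence signal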
Cytochrome P450 2C19 = Cytochrome P450 2C19 (Homo sapiens, UniProt P33261); assay: Cytochrome panel assay with activity outcomes. Panel member name: p450-cyp2c19 Compounds with AC50 equal or less than 10 uM are considered active; format: functional
Chain of Cytochrome P450 2C19 (P33261 whole entry): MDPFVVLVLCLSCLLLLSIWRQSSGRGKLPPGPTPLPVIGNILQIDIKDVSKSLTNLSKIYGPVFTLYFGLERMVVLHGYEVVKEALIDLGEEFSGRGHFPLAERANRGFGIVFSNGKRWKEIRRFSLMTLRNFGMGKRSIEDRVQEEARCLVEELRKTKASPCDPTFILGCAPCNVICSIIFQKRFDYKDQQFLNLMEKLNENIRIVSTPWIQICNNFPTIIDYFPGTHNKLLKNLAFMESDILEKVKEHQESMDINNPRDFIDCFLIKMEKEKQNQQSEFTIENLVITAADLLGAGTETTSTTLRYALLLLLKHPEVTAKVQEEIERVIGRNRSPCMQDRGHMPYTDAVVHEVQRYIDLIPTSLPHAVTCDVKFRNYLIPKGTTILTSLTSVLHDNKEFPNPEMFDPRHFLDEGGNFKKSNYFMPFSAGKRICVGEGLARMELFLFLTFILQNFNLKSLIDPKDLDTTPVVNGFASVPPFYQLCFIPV

| Compound | AC50 (Cytochrome P450 1A2) | EC50 [1] | EC50 [2] | further results |
| --- | --- | --- | --- | --- |
| N[C@@H](Cn1cc(I)c(=O)[nH]c1=O)C(=O)O | 39.8 µM (inconclusive) | – | – | – |
| CCCCNC(=O)c1cc2c(=O)n3cccc(C)c3nc2n(Cc2ccccc2)c1=N | – | > 60 µM (not active) | 3.03 µM (active) | – |
| COc1ccc(-c2nc3cnc(N4CCN(C)CC4)nc3n(C3CC3)c2=O)cc1 | 20 µM (inconclusive) | – | – | – |
| O=c1[nH]c2c(S)nc(O)nc2n1-c1ccccc1 | – | – | – | AC50 (Cytochrome P450 2C19): inconclusive |
| NS(=O)(=O)c1cc2c(cc1C(F)(F)F)N[C@H](Cc1ccccc1)NS2(=O)=O | 15.8 µM (inconclusive) | – | – | – |
| CCOc1cccc(C2C(C(=O)c3ccc(C)o3)=C(O)C(=O)N2Cc2ccncc2)c1 (configuration not stated) | 39.8 µM (inconclusive) | – | – | AC50 (Cytochrome P450 2C19; read-out: AC50): 39.8 µM (inconclusive) |
| Cc1ccc(OC(F)F)c(NC(=O)Nc2cccc(C(F)(F)F)c2)c1 | – | > 60 µM (not active) | 2.41 µM (active) | – |
| CSc1ccc2c(c1)N(CC[C@H]1CCCCN1C)c1ccccc1S2 | – | – | – | AC50 (Cytochrome P450 2C19; read-out: AC50): 20 µM (inconclusive) |
| O=C(CNC(=S)N(Cc1ccccc1)Cc1cccnc1)NC1CCCCC1 | – | 11.1 µM (active) | 0.516 µM (active) | – |
| CCCS(=O)(=O)N1CCN(CC2CC=CCC2)CC1 (configuration not stated) | 12.6 µM (inconclusive) | – | – | – |
| CCN(CC)CCNc1nc(-c2ccccc2)c2c(c1C#N)CC(C)(C)OC2 | – | > 60 µM (not active) | 0.332 µM (active) | – |
| O=C(Nc1nc2c(s1)CCCC2)c1ccc(S(=O)(=O)N2CCCc3ccccc32)cc1 | – | > 60 µM (inconclusive) | 2.07 µM (active) | – |
| N#Cc1ccc(-c2ccc(OCC(O)CN3CCCCC3)cc2)cc1 (configuration not stated) | – | 12.1 µM (active) | 1.98 µM (active) | – |
| O=C(COc1ccc(F)cc1)Nc1cc(S(=O)(=O)N2CCCCC2)ccc1N1CCCCC1 | – | > 60 µM (not active) | 2.15 µM (active) | – |
| N#CCCn1c(=O)c(CCc2ccccc2)nc2cnc(Oc3ccccc3)nc21 | 12.6 µM (inconclusive) | – | – | – |
| Cc1nc2ccccc2c(=O)n1-n1cnnc1 | 3.16 µM (inconclusive) | – | – | – |

| Compound | AC50 (Cytochrome P450 1A2) | EC50 [1] | EC50 [2] | further results |
| --- | --- | --- | --- | --- |
| COc1ccc(NC(=O)c2cc(-c3cccnc3)nc3c(C)c(C)ccc23)c(OC)c1 | – | > 60 µM (not active) | 2.69 µM (active) | – |
| CC(=O)N(C)c1nnc(-c2cnccn2)s1 | – | – | – | AC50 (Cytochrome P450 2C19): inconclusive |
| CS(=O)(=O)N1CCC[C@@]2(CCN(C(c3ccccc3)c3ccccc3)C2)C1 | 25.1 µM (inconclusive) | – | – | AC50 (Cytochrome P450 2C19; read-out: AC50): 3.16 µM (inconclusive) |
| c1csc(CNc2ccnc(-c3ccoc3)n2)c1 | – | – | – | AC50 (Cytochrome P450 2C19; read-out: AC50): 31.6 µM (inconclusive) |
| CN(Cc1c[nH]c2ccccc12)C1CCCCC1 | – | 23.9 µM (active) | 0.699 µM (active) | – |
| O=C(O)CCSCc1ccccc1 | – | – | – | AC50 (Cytochrome P450 2C19): inconclusive |
| O=C(CSc1nnc(COc2ccc(F)cc2)o1)N1c2ccccc2CCc2ccccc21 | – | > 60 µM (not active) | 1 µM (active) | – |
| CCOC(=O)C1CCCN(C(=O)CCCOc2cc(=O)n(C)c3ccccc23)C1 (configuration not stated) | 25.1 µM (inconclusive) | – | – | – |
| CC(C)(C)C(C(Oc1ccc(Cl)cc1)n1cncn1)n1nnnc1C(c1cccc(Cl)c1)N1CCCCC1 (configuration not stated) | – | > 60 µM (not active) | 1.59 µM (active) | – |
| O=[N+]([O-])c1ccc(C[S+]([O-])Cc2ccccc2)cc1 (configuration not stated) | 3.16 µM (inconclusive) | – | – | – |
| CN(Cc1ccco1)c1cc(-c2cccnc2)ncn1 | – | – | – | AC50 (Cytochrome P450 2C19; read-out: AC50): 20 µM (inconclusive) |
| NC(=O)CNC(=O)[C@@H]1CC2(CC(c3ccccc3)=NO2)CN1C(=O)c1ccc(Br)cc1 (some centres not stated) | 25.1 µM (inconclusive) | – | – | AC50 (Cytochrome P450 2C19; read-out: AC50): 39.8 µM (inconclusive) |
| CC(C)(O)c1cn(-c2nonc2N)nn1 | 39.8 µM (inconclusive) | – | – | AC50 (Cytochrome P450 2C19; read-out: AC50): 3.16 µM (inconclusive) |
| N=C(N)N/N=C/c1ccc(Br)cc1 | – | 6.37 µM (active) | 0.141 µM (active) | – |
| Cc1s/c(=N\C(=O)c2ccco2)n(C)c1-c1ccc(F)cc1 | – | – | – | AC50 (Cytochrome P450 2C19; read-out: AC50): 3.55 µM (inconclusive) |
